Results as given in patent US11066445B2, “Immunomodulators acting as antagonists of PD-1” (Bristol-Myers Squibb Company, priority 2017, dated 2021).
pIC50: −log10 of the molar value. Read-outs that look alike come from different tables or passages of the source. Starred links: 1 amine or outer side, 2 acyl side, 3 side chain; linkers in the order of their positions; H or OH if unused. Positions of bridges follow the written chain, without caps; N, C: chain ends. Non-standard residues stand in square brackets, D forms with d. Residues, ends and D or L forms follow the SMILES beside them. *: point of attachment. X3 = O=C(O)CCCCCCCCCCCCCCCCC(=O)N[C@@H](CCC(=O)NCCCOCCOCCOCCCN*)C(=O)O; Trp(1-CH2CONHSO2Me) = CS(=O)(=O)NC(=O)Cn1cc(C[C@H](N)C(=O)O)c2ccccc21; Trp(4-aza,1-CH2COOH) = N[C@@H](Cc1cn(CC(=O)O)c2cccnc12)C(=O)O; Trp(1-CH2CO2Me) = COC(=O)Cn1cc(C[C@H](N)C(=O)O)c2ccccc21; X4 = O=C(O)Cn1nc(C[C@H](N[*:1])C(=O)[*:2])c2ccccc21; d(cisHyp) = O=C(O)[C@H]1C[C@@H](O)CN1; Hyp = O=C(O)[C@@H]1C[C@@H](O)CN1; NMeNle = CCCC[C@H](NC)C(=O)O; NMeA = CN[C@@H](C)C(=O)O; Dab = NCC[C@H](N)C(=O)O; Dap = NC[C@H](N)C(=O)O; Sar = CNCC(=O)O

Target: T1, PD-1-Ig binding to PD-L1-TVMV-His (PD-L1-His) (Homo sapiens, UniProt Q9NZQ7)
T1 construct: hPDL1(19-239)-TVMV-His; TVMV protease cleavage site (C); made in house; host or cells: HEK293T cells
Assay: PD-1/PD-L1 Homogenous Time-Resolved Fluorescence (HTRF) binding assay
Settings: PD-1-Ig (20 nM) / PD-L1-His (10 nM), read-out: LE HTRF hPD1 hPDL1 IC50
Description: Methods for Testing the Ability of Macrocyclic Peptides to Compete for the Binding of Pd-1 to Pd-L1 Using Homogenous Time-Resolved Fluorescence (HTRF) Binding Assays
The ability of the macrocyclic peptides of the present disclosure to bind to PD-L1 was investigated using a PD-1/PD-L1 Homogenous Time-Resolved Fluorescence (HTRF) binding assay.
Homogenous Time-Resolved Fluorescence (HTRF) Assays of Binding of Soluble PD-1 to Soluble PD-L1. Soluble PD-1 and soluble PD-L1 refers to proteins with carboxyl-end truncations that remove the transmembrane-spanning regions and are fused to heterologous sequences, specifically the Fc portion of the human immunoglobuling G sequence (Ig) or the hexahistidine epitope tag (His). All binding studies were performed in an HTRF assay buffer consisting of dPBS supplemented with 0.1% (w/v) bovine serum albumin and 0.05% (v/v) Tween-20. For the PD-1-Ig/PD-L1-His binding assay, inhibitors were pre-incubated with PD-L1-His (10 nM final) for 15 m in 4 μl of assay buffer, followed by addition of PD-1-Ig (20 nM final) in 1 μl of assay buffer and further incubation for 15 m. PD-L1 fusion proteins from either human, cynomologous macaques, mouse, or other species were used. HTRF detection was achieved using europium crypate-labeled anti-Ig monoclonal antibody (1 nM final) and allophycocyanin (APC) labeled anti-His monoclonal antibody (20 nM final). Antibodies were diluted in HTRF detection buffer and 5 μl was dispensed on top of binding reaction. The reaction was allowed to equilibrate for 30 minutes and signal (665 nm/620 nm ratio) was obtained using an EnVision fluorometer. Additional binding assays were established between PD-1-Ig/PD-L2-His (20 and 5 nM, respectively), CD80-His/PD-L1-Ig (100 and 10 nM, respectively) and CD80-His/CTLA4-Ig (10 and 5 nM, respectively). Binding/competition studies between biotinylated Compound No. 71 and human PD-L1-His were performed as follows. Macrocyclic peptide inhibitors were pre-incubated with PD-L1-His (10 nM final) for 60 minutes in 4 μl of assay buffer followed by addition of biotinylated Compound No. 71 (0.5 nM final) in 1 μl of assay buffer. Binding was allowed to equilibrate for 30 minutes followed by addition of europium crypated labeled Streptavidin (2.5 pM final) and APC-labeled anti-His (20 nM final) in 5 μl of HTRF buffer. The reaction was allowed to equilibrate for 30 m and signal (665 nm/620 nm ratio) was obtained using an EnVision fluorometer.
Recombinant Proteins. Carboxyl-truncated human PD-1 (amino acids 25-167) with a C-terminal human Ig epitope tag [hPD-1 (25-167)-3S-IG] and human PD-L1 (amino acids 18-239) with a C-terminal His epitope tag [hPD-L1(19-239)-tobacco vein mottling virus protease cleavage site (TVMV)-His] were expressed in HEK293T cells and purified sequentially by recombinant Protein A affinity chromatography and size exclusion chromatography. Human PD-L2-His (Sino Biologicals), CD80-His (Sino Biologicals), CTLA4-Ig (RnD Systems) were all obtained through commercial sources.
Ranges are as follows: A=0.010-0.060 μM; B=0.0011-0.009 μM; C=0.0003-0.0010 μM.

T1 sequence (Q9NZQ7 with tags, fused parts or gaps): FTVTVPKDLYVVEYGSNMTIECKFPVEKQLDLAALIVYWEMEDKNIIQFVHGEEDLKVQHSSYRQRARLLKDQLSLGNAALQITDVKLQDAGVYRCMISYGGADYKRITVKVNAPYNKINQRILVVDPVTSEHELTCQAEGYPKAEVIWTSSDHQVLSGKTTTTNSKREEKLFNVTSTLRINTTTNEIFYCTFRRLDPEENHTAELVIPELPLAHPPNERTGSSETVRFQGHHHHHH

| Structure (SMILES) | pIC50 (numeric values) | pIC50 (range classes) |
| --- | --- | --- |
| CCCC[C@H]1C(=O)N(C)[C@@H](CCCC)C(=O)N[C@@H](CC(C)C)C(=O)N[C@H](C(=O)NCC(=O)N[C@@H](CC(=O)NCCCOCCOCCOCCCNC(=O)CC[C@H](NC(=O)CCCCCCCCCCCCCCCCC(=O)O)C(=O)O)C(=O)O)CSCC(=O)N[C@@H](Cc2ccc(O)cc2)C(=O)N(C)[C@@H](C)C(=O)N[C@@H](CC(N)=O)C(=O)N2CCC[C@H]2C(=O)N[C@@H](CN)C(=O)N[C@@H](CC(C)C)C(=O)N2C[C@H](O)C[C@H]2C(=O)N[C@@H](Cc2c[nH]c3ccccc23)C(=O)N[C@@H](CCN)C(=O)N[C@@H](Cc2cn(CC(=O)NS(C)(=O)=O)c3ccccc23)C(=O)N1C [Example 1] ({CH2CO}-Y[NMeA]NP[Dap]L[Hyp]W[Dab][Trp(1-CH2CONHSO2Me)][NMeNle][NMeNle]LCGD(X3)-OH; thioether N-14) | 8.92 |  |
| CCCC[C@H]1C(=O)N(C)[C@@H](CCCC)C(=O)N[C@@H](CC(C)C)C(=O)N[C@H](C(=O)NCC(=O)NCCCOCCOCCOCCCNC(=O)CC[C@H](NC(=O)CCCCCCCCCCCCCCCCC(=O)O)C(=O)O)CSCC(=O)N[C@@H](Cc2ccc(O)cc2)C(=O)N(C)[C@@H](C)C(=O)N[C@@H](CC(N)=O)C(=O)N2CCC[C@H]2C(=O)N[C@@H](CN)C(=O)N[C@@H](CC(C)C)C(=O)N2C[C@H](O)C[C@H]2C(=O)N[C@@H](Cc2c[nH]c3ccccc23)C(=O)N[C@@H](CCN)C(=O)N[C@@H](Cc2cn(CC(=O)NS(C)(=O)=O)c3ccccc23)C(=O)N1C [Example 3] ({CH2CO}-Y[NMeA]NP[Dap]L[Hyp]W[Dab][Trp(1-CH2CONHSO2Me)][NMeNle][NMeNle]LCG-X3; thioether N-14) |  | 8.05 to 8.96 |
| CCCC[C@H]1C(=O)N(C)[C@@H](CCCC)C(=O)N[C@@H](CC(C)C)C(=O)N[C@H](C(=O)NCC(=O)NCCCOCCOCCOCCCNC(=O)CC[C@H](NC(=O)CCCCCCCCCCCCCCCCC(=O)O)C(=O)O)CSCC(=O)N[C@@H](Cc2ccc(O)cc2)C(=O)N(C)[C@@H](C)C(=O)N[C@@H](CC(N)=O)C(=O)N(C)CC(=O)N[C@@H](CN)C(=O)N[C@@H](CC(C)C)C(=O)N2C[C@H](O)C[C@H]2C(=O)N[C@@H](Cc2c[nH]c3ccccc23)C(=O)N[C@@H](CCN)C(=O)N[C@@H](Cc2cn(CC(=O)NS(C)(=O)=O)c3ccccc23)C(=O)N1C [Example 4] ({CH2CO}-Y[NMeA]N[Sar][Dap]L[Hyp]W[Dab][Trp(1-CH2CONHSO2Me)][NMeNle][NMeNle]LCG-X3; thioether N-14) |  | 8.05 to 8.96 |
| CCCC[C@H]1C(=O)N(C)[C@@H](CCCC)C(=O)N[C@@H](CC(C)C)C(=O)N[C@H](C(=O)NCC(=O)N[C@@H](CC(=O)NCCCOCCOCCOCCCNC(=O)CC[C@H](NC(=O)CCCCCCCCCCCCCCCCC(=O)O)C(=O)O)C(=O)O)CSCC(=O)N[C@@H](Cc2ccc(O)cc2)C(=O)N(C)[C@@H](C)C(=O)N[C@@H](CC(N)=O)C(=O)N(C)CC(=O)N[C@@H](CN)C(=O)N[C@@H](CC(C)C)C(=O)N2C[C@H](O)C[C@H]2C(=O)N[C@@H](Cc2c[nH]c3ccccc23)C(=O)N[C@@H](CCN)C(=O)N[C@@H](Cc2nn(CC(=O)O)c3ccccc23)C(=O)N1C [Example 6] ({CH2CO}-Y[NMeA]N[Sar][Dap]L[Hyp]W[Dab][X4][NMeNle][NMeNle]LCGD(X3)-OH; thioether N-14) |  | 8.05 to 8.96 |
| CCCC[C@H]1C(=O)N(C)[C@@H](CCCC)C(=O)N[C@@H](CC(C)C)C(=O)N[C@H](C(=O)NCC(=O)N[C@@H](CC(=O)NCCCOCCOCCOCCCNC(=O)CC[C@H](NC(=O)CCCCCCCCCCCCCCCCC(=O)O)C(=O)O)C(=O)O)CSCC(=O)N[C@@H](Cc2ccc(O)cc2)C(=O)N(C)[C@@H](C)C(=O)N[C@@H](CC(N)=O)C(=O)N(C)CC(=O)N[C@@H](CN)C(=O)N[C@@H](CC(C)C)C(=O)N2C[C@H](O)C[C@@H]2C(=O)N[C@@H](Cc2c[nH]c3ccccc23)C(=O)N[C@@H](CCN)C(=O)N[C@@H](Cc2cn(CC(=O)O)c3cccnc23)C(=O)N1C [Example 8] ({CH2CO}-Y[NMeA]N[Sar][Dap]L[d(cisHyp)]W[Dab][Trp(4-aza,1-CH2COOH)][NMeNle][NMeNle]LCGD(X3)-OH; thioether N-14) |  | 8.05 to 8.96 |

Other lines, results leading:

| pIC50 (numeric values) | pIC50 (range classes) | Structure (SMILES) |
| --- | --- | --- |
|  | 8.05 to 8.96 | CCCC[C@H]1C(=O)N(C)[C@@H](CCCC)C(=O)N[C@@H](CC(C)C)C(=O)N[C@H](C(=O)NCC(=O)N[C@@H](CC(=O)NCCCOCCOCCOCCCNC(=O)CC[C@H](NC(=O)CCCCCCCCCCCCCCCCC(=O)O)C(=O)O)C(=O)O)CSCC(=O)N[C@@H](Cc2ccc(O)cc2)C(=O)N(C)[C@@H](C)C(=O)N[C@@H](CC(N)=O)C(=O)N(C)CC(=O)N[C@@H](CN)C(=O)N[C@@H](CC(C)C)C(=O)N2C[C@H](O)C[C@H]2C(=O)N[C@@H](Cc2c[nH]c3ccccc23)C(=O)N[C@@H](CCN)C(=O)N[C@@H](Cc2cn(CC(=O)NS(C)(=O)=O)c3ccccc23)C(=O)N1C [Example 2] ({CH2CO}-Y[NMeA]N[Sar][Dap]L[Hyp]W[Dab][Trp(1-CH2CONHSO2Me)][NMeNle][NMeNle]LCGD(X3)-OH; thioether N-14) |
|  | 8.05 to 8.96 | CCCC[C@H]1C(=O)N(C)[C@@H](CCCC)C(=O)N[C@@H](CC(C)C)C(=O)N[C@H](C(=O)NCC(=O)N[C@@H](CC(=O)NCCCOCCOCCOCCCNC(=O)CC[C@H](NC(=O)CCCCCCCCCCCCCCCCC(=O)O)C(=O)O)C(=O)O)CSCC(=O)N[C@@H](Cc2ccc(O)cc2)C(=O)N(C)[C@@H](C)C(=O)N[C@@H](CC(N)=O)C(=O)N2CCC[C@H]2C(=O)N[C@@H](CN)C(=O)N[C@@H](CC(C)C)C(=O)N2C[C@H](O)C[C@H]2C(=O)N[C@@H](Cc2c[nH]c3ccccc23)C(=O)N[C@@H](CCN)C(=O)N[C@@H](Cc2nn(CC(=O)O)c3ccccc23)C(=O)N1C [Example 5] ({CH2CO}-Y[NMeA]NP[Dap]L[Hyp]W[Dab][X4][NMeNle][NMeNle]LCGD(X3)-OH; thioether N-14) |
|  | 8.05 to 8.96 | CCCC[C@H]1C(=O)N(C)[C@@H](CCCC)C(=O)N[C@@H](CC(C)C)C(=O)N[C@H](C(=O)NCC(=O)N[C@@H](CC(=O)NCCCOCCOCCOCCCNC(=O)CC[C@H](NC(=O)CCCCCCCCCCCCCCCCC(=O)O)C(=O)O)C(=O)O)CSCC(=O)N[C@@H](Cc2ccc(O)cc2)C(=O)N(C)[C@@H](C)C(=O)N[C@@H](CC(N)=O)C(=O)N2CCC[C@H]2C(=O)N[C@@H](CN)C(=O)N[C@@H](CC(C)C)C(=O)N2C[C@H](O)C[C@H]2C(=O)N[C@@H](Cc2c[nH]c3ccccc23)C(=O)N[C@@H](CCN)C(=O)N[C@@H](Cc2cn(CC(=O)O)c3cccnc23)C(=O)N1C [Example 7] ({CH2CO}-Y[NMeA]NP[Dap]L[Hyp]W[Dab][Trp(4-aza,1-CH2COOH)][NMeNle][NMeNle]LCGD(X3)-OH; thioether N-14) |
|  | 9.00 to 9.52 | CCCC[C@H]1C(=O)N(C)[C@@H](CCCC)C(=O)N[C@@H](CC(C)C)C(=O)N[C@H](C(=O)NCC(=O)N[C@@H](CC(=O)NCCCOCCOCCOCCCNC(=O)CC[C@H](NC(=O)CCCCCCCCCCCCCCCCC(=O)O)C(=O)O)C(=O)O)CSCC(=O)N[C@@H](Cc2ccc(O)cc2)C(=O)N(C)[C@@H](C)C(=O)N[C@@H](CC(N)=O)C(=O)N2CCC[C@H]2C(=O)N[C@@H](CN)C(=O)N[C@@H](CC(C)C)C(=O)N2C[C@H](O)C[C@H]2C(=O)N[C@@H](Cc2c[nH]c3ccccc23)C(=O)N[C@@H](CCN)C(=O)N[C@@H](Cc2cn(CC(=O)OC)c3ccccc23)C(=O)N1C [Example 9] ({CH2CO}-Y[NMeA]NP[Dap]L[Hyp]W[Dab][Trp(1-CH2CO2Me)][NMeNle][NMeNle]LCGD(X3)-OH; thioether N-14) |
